The source of these data is paper PMC11005681, “Growth‐Coupled Evolutionary Pressure Improving Epimerases for D‐Allulose Biosynthesis Using a Biosensor‐Assisted In Vivo Selection Platform” (Advanced Science, 2024).

Test [1] concerns the target T1, ADAE (Agrobacterium sp. SUL3 D-allulose 3-epimerase) (Agrobacterium sp. SUL3, UniProt Z9QCC6USU8).
T1 construct: homotetramer; each subunit an (alpha/beta)8 barrel with Mg2+ site
T1 sequence (Z9QCC6USU8 1-284): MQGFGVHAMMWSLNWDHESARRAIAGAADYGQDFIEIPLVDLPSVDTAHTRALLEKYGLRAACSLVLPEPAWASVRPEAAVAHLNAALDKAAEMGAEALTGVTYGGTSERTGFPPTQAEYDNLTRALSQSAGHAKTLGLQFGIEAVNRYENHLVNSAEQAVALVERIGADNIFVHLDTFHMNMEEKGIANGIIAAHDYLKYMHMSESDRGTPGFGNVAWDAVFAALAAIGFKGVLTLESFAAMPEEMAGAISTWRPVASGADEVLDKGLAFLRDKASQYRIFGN
In words: X-ray crystal structure of complex. Format: binding. Particulars: active site with Mg2+; PDB id not printed in main text.

In test [2] the target is Agrobacterium sp. SUL3 D-allulose 3-epimerase (Agrobacterium sp. SUL3). The experiment in a line: crystal structure; X-ray crystal structures of ADAE alone and in complex with D-fructose or D-allulose; oligomer seen in the structure.

As for `O=C(CO)[C@H](O)[C@H](O)[C@H](O)CO` [D-allulose], the “X-ray crystal structure of complex” value in test [1] was “X-ray crystal structures of ADAE alone and in complex with different ligands, including D‐fructose and D‐allulose”. Same read-out and setting: the same measure for `OCC1(O)OC[C@@H](O)[C@@H](O)[C@@H]1O` (stereo partly drawn) [D-fructose]: “X-ray crystal structures of ADAE alone and in complex with different ligands, including D‐fructose and D‐allulose”.

As usually defined, the stoichiometry N is a count of units in the complex or per binding partner. In the case of “Agrobacterium sp. SUL3 D-allulose 3-epimerase (enzyme)”, the stoichiometry N in test [2] amounted to 4.
